These results are taken from article PMC12040169 (PLOS Biology, 2025).

The series is described as follows: in vitro. Conditions: human, hela cells, % viability.

As a reminder, the viability is a read-out of living cells in per cent, often relative to untreated cells. On to `FC(F)(F)c1ccnc(OCc2cccnc2)n1` [CBK115902], for which the viability at 28.5 h, 10 µM came out at 102%.

On to `Cn1cnc(S(=O)(=O)Nc2cccc3cc[nH]c23)c1` [CBK159554], for which the viability at 28.5 h, 10 µM worked out at 94%.

`Cc1ccc2c(N)c(C(=O)Nc3ccc(C#N)cc3)sc2n1` [CBK115348]: the viability at 28.5 h, 10 µM is 91.3%.

Consider `CCC(=O)N[C@H](CC)Cn1ncc2ccccc2c1=O` [CBK284303], for which the viability at 28.5 h, 10 µM was 77.1%.

As to `C=CCn1c(Cc2csc(NC(=O)Cc3ccc(Cl)cc3)n2)n[nH]c1=S` [CBK295359], the viability at 28.5 h, 10 µM was 96.3%.

As for `CCOc1ccc(CNc2ccc(C3c4ccsc4CCN3C(=O)COC)cc2)cc1` (stereo not shown) [CBK286453], the viability at 28.5 h, 10 µM was 85.3%.

Turning to `CCSc1nnc(Cc2cc(=O)[nH]c(=O)[nH]2)n1-c1ccc(F)cc1` [CBK287500], the viability at 28.5 h, 10 µM is 85.2%.

Consider `COC(=O)c1c(NC(=O)CC2SCC(C(=O)OC)NC2=O)sc2c1CCCC2` (stereo not shown) [CBK263834], for which the viability at 28.5 h, 10 µM came to 94.5%.

Take `COc1ncc(-c2nccnc2OCCn2cnc3c2c(=O)n(C)c(=O)n3C)c(OC)n1` [CBK106746]: the viability at 28.5 h, 10 µM amounted to 87.3%.

Regarding `COc1ccc(C)cc1S(=O)(=O)N(CC(=O)O)c1ccc(C)c(Cl)c1` [CBK269655], the viability at 28.5 h, 10 µM was determined as 83.3%.

On to `Cc1nccn1CCCn1cncc1-c1ccc2c(c1)CCC(C)N2C` (stereo not shown) [CBK281811], for which the viability at 28.5 h, 10 µM is 91%.

Regarding `O=C(CN1CCC(c2cccc(Cc3cccc(F)c3)n2)CC1)Nc1nccs1` [CBK286090], the viability at 28.5 h, 10 µM turned out to be 91.8%.

As for `CC(C)Oc1ccc(C(=O)N2CCC(COc3ccc(-c4ccc(S(C)(=O)=O)cc4)cn3)CC2)nc1` [CBK161989], the viability at 28.5 h, 10 µM amounted to 86.8%.

Consider `Cc1c(Cc2ccccc2)c(=O)oc2c(CN3CCCC(C)C3)c(O)ccc12` (stereo not shown) [CBK266995], for which the viability at 28.5 h, 10 µM amounted to 93.2%.

In the case of `O=S(=O)(Nc1ccc(-c2nnn[nH]2)cc1)c1ccc(F)c(C(F)(F)F)c1` [CBK154759], the viability at 28.5 h, 10 µM stood at 96.9%.

Consider `CN1C(=O)C(CC(=O)Nc2ccc(F)cc2)N(CCc2ccccc2)C1=S` (stereo not shown) [CBK263861], for which the viability at 28.5 h, 10 µM turned out to be 118%.

Regarding `Cn1c(NCc2ccccn2)nc2ccccc21` [CBK268544], the viability at 28.5 h, 10 µM came to 110%.

In the case of `Cc1ccc(-n2c(C)cc(/C=N/NC(=O)c3ccc(CN4CCOCC4)cc3)c2C)cc1` [CBK263324], the viability at 28.5 h, 10 µM came to 86.8%.

For the compound `O=C1N/C(=N/N=C/c2ccc(O)cc2)SC1Cc1ccccc1[N+](=O)[O-]` (stereo not shown) [CBK261684], the viability at 28.5 h, 10 µM worked out at 91.9%.

For `Cc1cccc(Nc2nc(N)nc(CC(=O)CSc3ccc(Cl)cc3)n2)c1` [CBK265204], the viability at 28.5 h, 10 µM is 104%.

With `CSc1cc(C)c2c(c1)COC1(CCN(C(=O)c3ccccc3C(=O)O)CC1)O2` [CBK060843], the viability at 28.5 h, 10 µM (bulk resorufin, single well) was 94.1%.

As to `CN(C)S(=O)(=O)c1ccc(Cl)c(C(=O)Nc2ccc(C(=O)O)cc2)c1` [CBK265728], the viability at 28.5 h, 10 µM stood at 94.7%.

Regarding `O=C(O)/C=C\C(=O)NCC(=O)O` [CBK260989], the viability at 28.5 h, 10 µM was 93.5%.

For the compound `FC(F)(F)c1cccc(OC2CCCNC2)n1` (stereo not shown) [CBK113290], the viability at 28.5 h, 10 µM was determined as 93.2%.

Regarding `Cn1nc(C2CCN(C(=O)CCc3ccccc3)CC2)c2cccnc21` [CBK285050], the viability at 28.5 h, 10 µM was determined as 103%.

On to `COCCn1c(CO)nnc1[C@H]1C[C@@H](NC(=O)c2ccc(C)s2)C1` [CBK307063], for which the viability at 28.5 h, 10 µM was 73.9%.

With `O=C1CC(SCCc2nc3ccccc3[nH]2)C(=O)N1c1cccc(F)c1` (stereo not shown) [CBK266671], the viability at 28.5 h, 10 µM is 94.6%.

Consider `CN(CC(=O)Nc1ccccc1N1CCCC1)Cc1cnn(Cc2ccccc2)c1` [CBK295187], for which the viability at 28.5 h, 10 µM is 105%.

As to `COCCn1c(CO)nnc1[C@H]1C[C@@H](NC(=O)c2ccc(F)cc2C)C1` [CBK306856], the viability at 28.5 h, 10 µM amounted to 94.7%.

Regarding `COc1ccc([C@H]2CN(Cc3ccccc3)C[C@@H]2NC(C)=O)cc1` [CBK282930], the viability at 28.5 h, 10 µM amounted to 92.1%.

As to `COC(=O)CN1CCCC[C@H]2CN(C(=O)C3CCC3)C[C@H]21` [CBK285496], the viability at 28.5 h, 10 µM was 103%.
